Results on 24 molecules are retold here after patent US20050113420A1, “Methionine aminopeptidase inhibitor” (priority 2002, published 2005).

Experiment [1] concerns the target T1, EcMetAP (Escherichia coli, UniProt P0AE18).
T1 construct: made in house; host or cells: E. coli
In words: EcMetAP inhibition, Met-S-C-Phe thiopeptolide/DTNB assay at 412 nm. The format is biochemical, E. coli. The note with it: for IC50: Co-loaded enzyme, estimated IC50 at eight inhibitor concentrations, read-out: IC50(μM) EMetAP. From the text:
EcMetAP was cloned and overexpressed in E. coli, and purified by (NH4)2SO4 precipitation and Q-Sepharose column separation to give apo-EcMetAP.
(§1) Hydrolysis of the synthesized Met-S-C-Phe thiopeptolide substrate generates a free thiol group, which reacts with excessive DTNB instantly to produce a highly chromogenic product, 3-carboxyl-4-nitrothiophenol (ε412=13,600 M^−1cm^−1). Therefore, the enzymatic reaction catalyzed by MetAP can be continuously monitored at 412 nm on a SpectraMAX 340 microplate reader.
(§2) Employed conventional screening method (Anal Biochem. 2000, 280: 159-65)
(§3) All the compounds were initially screened at the multiple concentrations 2 μg/mL, 20 μg/mL, 100 μg/mL. When the inhibitory activities of the compounds were larger than 50%, their estimated IC50 value were determinated at eight inhibitor concentrations.

Experiment [2] deals with hMetAP1 (Homo sapiens, UniProt P53582). Nature of the experiment: hMetAP1 inhibition. The format is biochemical.
Description: as §1, §2, §3

The target of experiment [3] is type 2 methionine aminopeptidase (Homo sapiens, UniProt P50579). The note with it: covalent binding inhibitors; cited from earlier work.
The target of experiment [4] is EcMetAP1 (Escherichia coli, UniProt P0AE18). Conditions: read-out: IC50 EcMetAP1; cited from earlier work.
EcMetAP1, sequence (P0AE18 whole entry): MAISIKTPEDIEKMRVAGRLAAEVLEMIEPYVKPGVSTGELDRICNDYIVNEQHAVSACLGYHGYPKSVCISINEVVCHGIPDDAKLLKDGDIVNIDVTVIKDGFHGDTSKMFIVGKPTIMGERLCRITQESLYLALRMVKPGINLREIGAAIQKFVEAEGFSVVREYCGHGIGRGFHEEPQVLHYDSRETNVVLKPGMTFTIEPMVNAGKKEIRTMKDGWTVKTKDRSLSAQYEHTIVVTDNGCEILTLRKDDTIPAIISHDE

T1 sequence (P0AE18 whole entry): as above
type 2 methionine aminopeptidase, sequence (P50579 whole entry): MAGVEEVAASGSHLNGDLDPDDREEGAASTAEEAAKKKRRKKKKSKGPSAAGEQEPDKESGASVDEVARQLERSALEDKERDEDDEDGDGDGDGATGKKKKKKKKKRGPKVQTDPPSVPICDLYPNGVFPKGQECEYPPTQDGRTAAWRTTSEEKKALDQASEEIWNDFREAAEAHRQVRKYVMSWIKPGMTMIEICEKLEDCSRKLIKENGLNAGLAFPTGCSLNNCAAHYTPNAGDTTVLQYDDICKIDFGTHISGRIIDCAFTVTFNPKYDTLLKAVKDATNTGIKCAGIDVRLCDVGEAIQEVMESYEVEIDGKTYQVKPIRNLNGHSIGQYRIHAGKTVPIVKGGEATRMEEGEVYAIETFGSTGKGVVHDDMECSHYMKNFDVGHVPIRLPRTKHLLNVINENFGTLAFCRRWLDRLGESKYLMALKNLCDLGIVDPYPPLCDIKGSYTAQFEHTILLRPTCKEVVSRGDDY

Consider `Nc1ccccc1C(=O)Nc1nccs1` [Compound 7], for which the inhibition at 20 µg/mL in experiment [1] (read-out: inhibition of EMetAP) was 30%.
For the molecule `O=C(Nc1nccs1)c1cc(Cl)ccn1` [Compound 16], the half-inhibitory concentration (IC50) in experiment [1] was 4.84 µM.
Take `O=C(Nc1ncc(Br)s1)c1ccccn1` [Compound 17]: the IC50 in experiment [1] is 6 µM.
On the same count and under the same terms, for `O=C(Nc1nccs1)c1ccc2ccccc2n1` [Compound 27] the value was 51 µM; for `COc1ccnc(C(=O)Nc2nccs2)c1` [Compound 30], 9.22 µM; for `O=C(Nc1nccs1)c1ncccc1O` [Compound 31], 2.33 µM.
Turning to `O=C(Nc1nccs1)c1cccc(CO)n1` [Compound 32], the IC50 in experiment [1] is 5.82 µM.
Take `CC(=O)Oc1cccnc1C(=O)Nc1nccs1` [Compound 34]: the IC50 in experiment [1] is 8.2 µM; in experiment [2], 29 µM.
On the same counts, the results for `COc1cccnc1C(=O)Nc1nccs1` [Compound 35] are 4.49 µM and 20.9 µM.
Regarding `O=C(Oc1cccnc1C(=O)Nc1nccs1)c1ccccc1` [Compound 36], the IC50 is 1.1 µM in experiment [1] and 28.7 µM in experiment [2].
Turning to `COc1ccccc1C(=O)Oc1cccnc1C(=O)Nc1nccs1` [Compound 37], the IC50 in experiment [1] was 1.9 µM; in experiment [2], 15.4 µM.
`O=C(Oc1cccnc1C(=O)Nc1nccs1)c1cccc([N+](=O)[O-])c1` [Compound 41]: the IC50 in experiment [1] is 1.91 µM; in experiment [2], 7.3 µM.
Consider `COc1ccccc1/C=C/C(=O)Oc1cccnc1C(=O)Nc1nccs1` [Compound 44], for which, in experiment [1], the IC50 was 1.8 µM.
For `O=C(Oc1cccnc1C(=O)Nc1nccs1)c1ccc(F)c(Br)c1` [Compound 45], the IC50 in experiment [1] was 1.35 µM; in experiment [2], 17.4 µM.
For the molecule `O=C(Oc1cccnc1C(=O)Nc1nccs1)c1ccc(F)cc1` [Compound 46], the figures for the IC50 in experiment [1] and in experiment [2] were 1.31 µM and 7 µM, respectively.
As for `O=C(Nc1nccs1)c1ncccc1OCc1ccccc1` [Compound 47], the IC50 is 5.31 µM in experiment [1] and 7.8 µM in experiment [2].
For the molecule `Nc1cccnc1C(=O)Nc1nccs1` [Compound 50], the IC50 in experiment [1] is 5.56 µM; in experiment [2], 11 µM.
Take `O=C(Nc1cccnc1C(=O)Nc1nccs1)c1ccccc1` [Compound 51]: the IC50 in experiment [1] is 0.14 µM.
Still for that read-out and setting: for `CC(C)(C)OC(=O)Nc1cccnc1C(=O)Nc1nccs1` [Compound 52] the value was 1.25 µM; for `O=C(Nc1cccnc1C(=O)Nc1nccs1)c1ccc(F)cc1` [Compound 53], 0.05 µM.
On to `Cc1nc(C(=O)Nc2nccs2)cs1` [Compound 55], for which the IC50 in experiment [1] was 0.4 µM.
As to `CO[C@@H]1[C@H](OC(=O)NC(=O)CCl)CC[C@]2(CO2)[C@H]1[C@@]1(C)O[C@@H]1CC=C(C)C` [TNP-470], the “IC50 MetAPs” value in experiment [3] is reported as “in the nM range”.
On to `CO[C@@H]1[C@H](OC(=O)/C=C/C=C/C=C/C=C/C(=O)O)CC[C@]2(CO2)[C@H]1[C@@]1(C)O[C@@H]1CC=C(C)C` [fumagillin], for which the “IC50 MetAPs” value in experiment [3] is “in the nM range”.
Turning to AHHPA-Ala-Leu-Val-Phe-OMe, the IC50 in experiment [4] was 5 µM.
